{"source": "patent US12065404B2", "about": "“C4-carboxylic acid-substituted tryptamine derivatives and methods of using” (priority 2022, dated 2024)", "key": {"5-HT1A receptor": {"target": "T1, 5-HT1A receptor (Homo sapiens, UniProt P08908)", "T1 construct": "host or cells: CHO-K1 (co-expressing Ga15)", "T1 sequence (P08908 1-422)": "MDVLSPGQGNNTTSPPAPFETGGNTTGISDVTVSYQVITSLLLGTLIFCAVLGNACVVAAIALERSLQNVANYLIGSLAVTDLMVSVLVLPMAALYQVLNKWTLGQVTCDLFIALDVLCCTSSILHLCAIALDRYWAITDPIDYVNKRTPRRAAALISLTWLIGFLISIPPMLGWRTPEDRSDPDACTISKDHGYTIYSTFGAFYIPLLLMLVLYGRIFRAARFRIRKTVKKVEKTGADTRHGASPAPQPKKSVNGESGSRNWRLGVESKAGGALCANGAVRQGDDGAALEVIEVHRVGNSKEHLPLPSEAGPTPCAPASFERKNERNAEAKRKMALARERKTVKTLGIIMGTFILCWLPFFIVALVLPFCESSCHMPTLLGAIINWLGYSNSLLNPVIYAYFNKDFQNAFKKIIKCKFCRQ", "test": "cAMP-Glo assay of 5-HT1A receptor modulation, +5-HT1A (CHO-K1/5-HT1A/Ga15) vs -5-HT1A (CHO-K1/Ga15) cells", "type": "cell-based", "design": "dose or concentration left out as unconfirmed", "details": "+5-HT1A vs -5-HT1A cell cultures stimulated with forskolin, increasing ligand concentrations"}, "[1]": {"target": "T2, neuronal 5-HT2A receptor (5-HT2AR) (Mus musculus, UniProt P35363)", "T2 construct": "HTR was measured in mice treated with a control and test compounds; tissue Charles River; host or cells: live C57BL/6-Elite mice (neuronal receptor)", "T2 sequence (P35363 whole entry)": "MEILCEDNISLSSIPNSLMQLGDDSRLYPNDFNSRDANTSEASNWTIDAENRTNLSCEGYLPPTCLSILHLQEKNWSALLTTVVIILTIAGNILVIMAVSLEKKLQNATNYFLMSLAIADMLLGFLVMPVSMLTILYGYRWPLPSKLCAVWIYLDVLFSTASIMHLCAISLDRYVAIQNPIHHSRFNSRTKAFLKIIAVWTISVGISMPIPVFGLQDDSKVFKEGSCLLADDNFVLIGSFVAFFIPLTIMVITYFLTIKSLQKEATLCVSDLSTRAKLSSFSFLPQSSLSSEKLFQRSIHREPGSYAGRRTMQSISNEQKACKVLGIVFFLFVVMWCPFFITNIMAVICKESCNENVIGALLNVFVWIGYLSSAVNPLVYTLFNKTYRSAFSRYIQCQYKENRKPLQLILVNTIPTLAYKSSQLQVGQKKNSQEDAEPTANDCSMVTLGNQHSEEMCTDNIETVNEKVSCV", "test": "Drug-induced Head Twitch Response (HTR) in mice", "type": "in vivo, C57BL/6-Elite mice", "details": "1 mg/kg i.p., 15-to-30-minute window post-drug, relative to vehicle-treated control mice"}, "GABAA": {"target": "GABAA (Homo sapiens, UniProt P14867+P18507+P47870)", "sequence (P14867 28-456)": "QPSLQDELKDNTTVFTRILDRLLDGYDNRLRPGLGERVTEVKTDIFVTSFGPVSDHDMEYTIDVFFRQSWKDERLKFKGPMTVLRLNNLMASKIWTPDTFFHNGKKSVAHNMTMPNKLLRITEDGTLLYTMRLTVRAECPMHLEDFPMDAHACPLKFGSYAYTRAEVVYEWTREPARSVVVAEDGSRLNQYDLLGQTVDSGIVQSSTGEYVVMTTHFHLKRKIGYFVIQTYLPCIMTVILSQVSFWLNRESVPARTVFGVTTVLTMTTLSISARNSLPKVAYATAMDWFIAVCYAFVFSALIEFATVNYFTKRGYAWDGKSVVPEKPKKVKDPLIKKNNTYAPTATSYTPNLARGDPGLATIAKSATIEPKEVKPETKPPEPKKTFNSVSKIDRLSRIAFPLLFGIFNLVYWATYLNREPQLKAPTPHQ", "sequence (P47870 26-512)": "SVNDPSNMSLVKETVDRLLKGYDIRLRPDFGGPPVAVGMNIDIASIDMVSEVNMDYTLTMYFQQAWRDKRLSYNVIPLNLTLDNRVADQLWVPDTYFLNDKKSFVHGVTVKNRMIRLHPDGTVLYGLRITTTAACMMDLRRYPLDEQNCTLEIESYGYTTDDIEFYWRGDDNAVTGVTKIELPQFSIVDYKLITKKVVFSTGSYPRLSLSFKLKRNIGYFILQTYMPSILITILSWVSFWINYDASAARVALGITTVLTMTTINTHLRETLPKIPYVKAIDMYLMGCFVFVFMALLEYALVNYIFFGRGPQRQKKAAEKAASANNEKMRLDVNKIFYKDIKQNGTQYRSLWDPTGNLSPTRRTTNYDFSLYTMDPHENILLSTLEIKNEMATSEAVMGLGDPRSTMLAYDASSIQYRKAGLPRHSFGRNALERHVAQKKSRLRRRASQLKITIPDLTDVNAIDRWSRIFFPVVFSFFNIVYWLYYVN", "sequence (P18507 40-475)": "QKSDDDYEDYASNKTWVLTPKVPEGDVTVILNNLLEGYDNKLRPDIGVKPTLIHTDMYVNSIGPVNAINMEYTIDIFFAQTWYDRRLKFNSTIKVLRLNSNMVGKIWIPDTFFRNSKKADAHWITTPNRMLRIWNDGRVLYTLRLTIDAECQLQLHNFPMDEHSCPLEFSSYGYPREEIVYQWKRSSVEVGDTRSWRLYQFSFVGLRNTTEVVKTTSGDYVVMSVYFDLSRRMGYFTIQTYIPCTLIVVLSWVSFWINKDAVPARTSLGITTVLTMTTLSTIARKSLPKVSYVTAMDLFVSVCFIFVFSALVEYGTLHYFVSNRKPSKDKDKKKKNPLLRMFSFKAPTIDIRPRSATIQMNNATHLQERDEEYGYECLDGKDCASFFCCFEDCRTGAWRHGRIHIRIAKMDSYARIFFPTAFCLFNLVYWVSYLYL", "type": "cell-based", "details": "ion channel"}, "[2]": {"test": "Mouse pharmacokinetic (PK) study, parent compound and psilocin metabolite in plasma", "type": "in vivo, C57Bl/6 mice", "details": "for F(%) / F(%), M37 considered as an outlier: AUC0-tlast used for p.o. group; for F(%): value might be under-estimated; for F(%), M37 considered as an outlier: i.v. animal M37 considered an outlier", "excerpt": "Briefly, the procedure was as follows. […] 19, 2022."}, "[3]": {"details": "1 mg/kg i.v. C(I), 6 h, individual animals"}, "[4]": {"details": "1 mg/kg i.v. C(I), 8 h, individual animals"}, "[5]": {"details": "1 mg/kg oral C(I), 8 h, individual animals"}, "[6]": {"details": "1 mg/kg oral C(I), 24 h, individual animals"}, "[7]": {"details": "1 mg/kg oral, individual animals"}, "[8]": {"details": "3 mg/kg oral C(I), 24 h, individual animals"}, "[9]": {"details": "3 mg/kg oral, individual animals"}}, "note": "Where “and” joins values, the source holds several entries; their conditions need not be identical. Equal entries are not always repeated. Entries after “also recorded” stand apart in the source; their conditions may differ."}
{"compound": "CN(C)CCc1c[nH]c2cccc(OC(=O)c3ccc(Br)cc3)c12", "note": "[C(I)]", "values": [{"measurement": "5-HT1A receptor modulation (reduction of cAMP levels)", "setting": "5-HT1A receptor", "result": "mild receptor modulation at higher ligand concentrations"}, {"measurement": "Incidences of Head Twitch Response (HTR)", "setting": "[1]", "result": "Elevated incidences of HTR"}, {"measurement": "IC50", "setting": "GABAA; blocker (BL)", "result": "> 100", "unit": "µM"}, {"measurement": "EC50", "setting": "GABAA; opener (OP)", "result": "> 100", "unit": "µM"}, {"measurement": "Plasma concentration of C(I)", "setting": "[2]; 1 mg/kg i.v. C(I), 5 min, individual animals", "result": "2620 ng/mL and 118 ng/mL and 94.4 ng/mL"}, {"measurement": "Plasma concentration of C(I)", "setting": "[2]; 1 mg/kg i.v. C(I), 0.25 h, individual animals", "result": "1250 ng/mL and 58.5 ng/mL and 48.2 ng/mL"}, {"measurement": "Plasma concentration of C(I)", "setting": "[2]; 1 mg/kg i.v. C(I), 0.5 h, individual animals", "result": "348 ng/mL and 33.4 ng/mL and 30.4 ng/mL"}, {"measurement": "Plasma concentration of C(I)", "setting": "[2]; 1 mg/kg i.v. C(I), 1 h, individual animals", "result": "128 ng/mL and 17.9 ng/mL and 13.8 ng/mL"}, {"measurement": "Plasma concentration of C(I)", "setting": "[2]; 1 mg/kg i.v. C(I), 2 h, individual animals", "result": "52.8 ng/mL and 3.61 ng/mL and 3.40 ng/mL"}, {"measurement": "Plasma concentration of C(I)", "setting": "[2]; 1 mg/kg i.v. C(I), 4 h, individual animals", "result": "8.88 ng/mL and 0.984 ng/mL and 0.509 ng/mL"}, {"measurement": "Plasma concentration of C(I)", "setting": "[2]; [3]", "result": "4.65 ng/mL and 0.363 ng/mL and BLQ (BLQ denotes below the lower limit of quantitation (0.5 ng/mL).)"}, {"measurement": "Plasma concentration of psilocin", "setting": "[2]; [3]", "result": "BLQ (BLQ denotes below the lower limit of quantitation (0.2 ng/ml).)"}, {"measurement": "Plasma concentration of C(I)", "setting": "[2]; [4]", "result": "BLQ (BLQ denotes below the lower limit of quantitation (0.5 ng/mL).); also recorded: No Peak"}, {"measurement": "Plasma concentration of psilocin", "setting": "[2]; [4]", "result": "BLQ (BLQ denotes below the lower limit of quantitation (0.2 ng/ml).)"}, {"measurement": "Plasma concentration of C(I)", "setting": "[2]; 1 mg/kg oral C(I), 0.25 h, individual animals", "result": "0.617 ng/mL and 0.410 ng/mL and 0.910 ng/mL"}, {"measurement": "Plasma concentration of C(I)", "setting": "[2]; 1 mg/kg oral C(I), 0.5 h, individual animals", "result": "0.816 ng/mL and 0.535 ng/mL and 1.28 ng/mL"}, {"measurement": "Plasma concentration of C(I)", "setting": "[2]; 1 mg/kg oral C(I), 1 h, individual animals", "result": "BLQ (BLQ denotes below the lower limit of quantitation (0.5 ng/mL).) and 1.02 ng/mL"}, {"measurement": "Plasma concentration of C(I)", "setting": "[2]; 1 mg/kg oral C(I), 2 h, individual animals", "result": "BLQ (BLQ denotes below the lower limit of quantitation (0.5 ng/mL).) and 0.600 ng/mL"}, {"measurement": "Plasma concentration of C(I)", "setting": "[2]; 1 mg/kg oral C(I), 4 h, individual animals", "result": "BLQ (BLQ denotes below the lower limit of quantitation (0.5 ng/mL).)"}, {"measurement": "Plasma concentration of C(I)", "setting": "[2]; 1 mg/kg oral C(I), 6 h, individual animals", "result": "BLQ (BLQ denotes below the lower limit of quantitation (0.5 ng/mL).)"}, {"measurement": "Plasma concentration of C(I)", "setting": "[2]; [5]", "result": "BLQ (BLQ denotes below the lower limit of quantitation (0.5 ng/mL).)"}, {"measurement": "Plasma concentration of psilocin", "setting": "[2]; [5]", "result": "BLQ (BLQ denotes below the lower limit of quantitation (0.2 ng/ml).)"}, {"measurement": "Plasma concentration of C(I)", "setting": "[2]; [6]", "result": "No Peak and No (2×)"}, {"measurement": "Plasma concentration of psilocin", "setting": "[2]; [6]", "result": "No Peak; also recorded: BLQ (BLQ denotes below the lower limit of quantitation (0.2 ng/ml).)"}, {"measurement": "F(%)", "setting": "[2]; [7]", "result": "0.554% and 0.0450% and 0.465%"}, {"measurement": "F(%), M37 considered as an outlier", "setting": "[2]; [7]", "result": "3.59% and 0.291% and 3.01%"}, {"measurement": "F(%), M37 considered as an outlier", "setting": "[2]; 1 mg/kg oral, mean ± SD", "result": "2.30 ± 1.76% and 2.30%"}, {"measurement": "Plasma concentration of C(I)", "setting": "[2]; 3 mg/kg oral C(I), 0.25 h, individual animals", "result": "2.13 ng/mL and 2.34 ng/mL"}, {"measurement": "Plasma concentration of C(I)", "setting": "[2]; 3 mg/kg oral C(I), 0.5 h, individual animals", "result": "2.16 ng/mL and 1.99 ng/mL"}, {"measurement": "Plasma concentration of C(I)", "setting": "[2]; 3 mg/kg oral C(I), 1 h, individual animals", "result": "1.56 ng/mL and 1.33 ng/mL"}, {"measurement": "Plasma concentration of C(I)", "setting": "[2]; 3 mg/kg oral C(I), 2 h, individual animals", "result": "0.705 ng/mL and 0.720 ng/mL"}, {"measurement": "Plasma concentration of C(I)", "setting": "[2]; 3 mg/kg oral C(I), 4 h, individual animals", "result": "0.569 ng/mL and 0.873 ng/mL and 1.28 ng/mL"}, {"measurement": "Plasma concentration of C(I)", "setting": "[2]; 3 mg/kg oral C(I), 6 h, individual animals", "result": "0.310 ng/mL and 0.250 ng/mL"}, {"measurement": "Plasma concentration of C(I)", "setting": "[2]; 3 mg/kg oral C(I), 8 h, individual animals", "result": "BLQ (BLQ denotes below the lower limit of quantitation (0.5 ng/mL).)"}, {"measurement": "Plasma concentration of C(I)", "setting": "[2]; [8]", "result": "No Peak"}, {"measurement": "Plasma concentration of psilocin", "setting": "[2]; [8]", "result": "No Peak"}, {"measurement": "F(%)", "setting": "[2]; [9]", "result": "0.484% and 0.523%"}, {"measurement": "F(%), M37 considered as an outlier", "setting": "[2]; [9]", "result": "3.02% and 3.13% and 3.39%"}, {"measurement": "F(%), M37 considered as an outlier", "setting": "[2]; 3 mg/kg oral, mean ± SD", "result": "3.18 ± 0.189% and 3.18%"}, {"measurement": "Plasma concentration of C(I)", "setting": "[2]; 10 mg/kg oral C(I), 0.25 h, individual animals", "result": "3.73 ng/mL and 6.07 ng/mL"}, {"measurement": "Plasma concentration of C(I)", "setting": "[2]; 10 mg/kg oral C(I), 0.5 h, individual animals", "result": "7.10 ng/mL and 10.9 ng/mL"}, {"measurement": "Plasma concentration of C(I)", "setting": "[2]; 10 mg/kg oral C(I), 1 h, individual animals", "result": "5.29 ng/mL and 7.46 ng/mL"}, {"measurement": "Plasma concentration of C(I)", "setting": "[2]; 10 mg/kg oral C(I), 2 h, individual animals", "result": "2.51 ng/mL and 1.47 ng/mL and 3.80 ng/mL"}, {"measurement": "Plasma concentration of C(I)", "setting": "[2]; 10 mg/kg oral C(I), 4 h, individual animals", "result": "2.06 ng/mL and 3.01 ng/mL"}, {"measurement": "Plasma concentration of C(I)", "setting": "[2]; 10 mg/kg oral C(I), 6 h, individual animals", "result": "1.18 ng/mL and 0.661 ng/mL"}, {"measurement": "Plasma concentration of C(I)", "setting": "[2]; 10 mg/kg oral C(I), 8 h, individual animals", "result": "0.253 ng/mL and 1.10 ng/mL and 0.283 ng/mL"}, {"measurement": "Plasma concentration of C(I)", "setting": "[2]; 10 mg/kg oral C(I), 24 h, individual animals", "result": "No (2×) and No Peak"}]}
